Data on two compounds can be found in patent publication US11377464B2, “Galactoside inhibitor of galectins” (Galecto Biotech AB, priority 2015, dated 2022).

The target of one test is galectin-3 (Homo sapiens (Human), UniProt P17931). Briefly: Fluorescence anisotropy assay: compound as inhibitor of the interaction between galectin and a fluorescein tagged saccharide probe. The class given is binding. The following applies: 50 nM galectin-3, 100 nM albumin for high affinity compounds. The protocol:
100 nM albumin was included as a carrier to prevent protein loss at such low concentration of galectin.

Another test deals with galectins. The following applies: cited from earlier work.

galectin-3, sequence (P17931 whole entry): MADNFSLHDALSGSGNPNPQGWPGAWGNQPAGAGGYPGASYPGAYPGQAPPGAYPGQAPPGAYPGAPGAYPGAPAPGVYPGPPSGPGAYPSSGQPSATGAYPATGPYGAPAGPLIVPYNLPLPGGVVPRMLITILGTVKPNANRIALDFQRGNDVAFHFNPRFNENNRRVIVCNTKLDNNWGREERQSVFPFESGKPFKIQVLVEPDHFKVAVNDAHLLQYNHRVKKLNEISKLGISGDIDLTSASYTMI

Take `O=C(NCC(F)(F)F)c1cn([C@@H]2C(O)[C@@H](Sc3ccc(Cl)c(Cl)c3)OC(CO)[C@@H]2O)nn1` (stereo in doubt) [Example 98]: binding at galectin-3 was characterised by a dissociation constant (Kd) of 560 nM.

Turning to `O=C[C@H](O)[C@@H](O)[C@@H](O)[C@H](O)CO` [D-galactose, D-(+)-galactose], the “affinity relative to lactose” value in the test on galectins is on record as 50-100 times lower.

The Kd is the concentration at which binding is half-saturated. Read a low Kd as a tighter complex.
